{"source": "patent US8921576B2", "about": "“Spiroindoline compound, and medicinal agent comprising same” (Kowa Company, Ltd., priority 2011, dated 2014)", "data": [{"molecular_target": "T1, GST-GK derived from human liver GK (Homo sapiens, UniProt P35557)", "T1 construct": "made in house; host or cells: Escherichia coli DH5α", "T1 sequence (P35557 1-466 isoform P35557-2)": "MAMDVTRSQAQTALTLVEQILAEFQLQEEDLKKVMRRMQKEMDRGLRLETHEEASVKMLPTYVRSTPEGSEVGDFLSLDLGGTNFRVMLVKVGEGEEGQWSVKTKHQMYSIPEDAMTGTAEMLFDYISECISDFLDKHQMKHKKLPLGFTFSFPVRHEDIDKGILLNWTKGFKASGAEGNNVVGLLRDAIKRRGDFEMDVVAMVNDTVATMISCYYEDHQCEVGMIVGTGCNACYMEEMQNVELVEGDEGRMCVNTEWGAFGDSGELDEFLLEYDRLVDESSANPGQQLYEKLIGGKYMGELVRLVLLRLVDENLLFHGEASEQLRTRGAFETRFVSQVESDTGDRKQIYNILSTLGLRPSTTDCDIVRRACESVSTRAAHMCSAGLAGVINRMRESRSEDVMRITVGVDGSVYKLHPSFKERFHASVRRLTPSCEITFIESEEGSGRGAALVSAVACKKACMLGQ", "test": "In vitro GK activity measurement test (G6PDH-coupled, OD340)", "type": "biochemical", "conditions": "test compound 1 μmol/L; glucose 2.5 mmol/L; 25° C.; OD340 slope with compound / without compound; read-out: GK activation rate (%)", "text": "cDNA (GenBank Accession No. NM_033507, human glucokinase, variant 2) encoding human liver-type GK polypeptide was cloned by performing a polymerase chain reaction (hereinafter referred to as “PCR”) using a human liver cDNA library (Human liver QUICK-Clone cDNA, TAKARA BIO INC.), and the thus cloned cDNA was then introduced into an expression vector (pGEX-3X, GE Healthcare Japan) for glutathione S transferase (hereinafter referred to as GST) fusion protein expression. The resulting vector was introduced into Escherichia coli (Competent high DH5α, Toyobo Co., Ltd.), and the transformed Escherichia coli was then cultured at 37° C. Thereafter, Isopropyl β-D-1-thiogalactopyranoside (final concentration: 1 mmol/L, Sigma Aldrich Japan) was added to the culture, and the obtained mixture was then cultured at 30° C. for 3 hours. Thereafter, a cell mass was recovered. The recovered cell mass was subjected to freezing-and-thawing, and the resulting cell mass was then suspended in phosphate buffer with final concentration of 1% Triton X-100, followed by disintegration with an ultrasonic disruptor. The homogenate was centrifuged at 33,200 rpm at 4° C. for 1 hour. Thereafter, the supernatant was recovered, and a GST-GK fusion protein was then purified using a glutathione column (GSTrap FF, GE Healthcare Japan). The obtained GST-GK fusion protein was divided into some portions each having a small volume, and the thus divided proteins were then preserved at −80° C.\nA GK assay method was carried out at 25° C. at a final incubation volume of 100 μL in a flat-bottom 96-well assay plate. An assay buffer comprised 25 mmol/L Hepes buffer (pH 7.1), 25 mmol/L KCl, 2.5 mmol/L or 10 mmol/L D-glucose, 5 mmol/L ATP, 1 mmol/L nicotinamide adenine dinucleotide phosphate (abbreviated as NADP), 2 mmol/L MgCl2, 1 mmol/L dithiothreitol (DTT), 2 units/mL glucose-6 phosphate dehydrogenase (G6PDH), and 1 μg/mL GST-GK derived from human liver GK. ATP, G6PDH, and NADP were purchased from Roche Diagnostics. […] The thus mixed solution was preincubated in an incubator in which the temperature was controlled at 25° C. for 15 minutes. Subsequently, the reaction was initiated by adding 10 μL of the GST-GK solution to the reaction mixture, resulting in a final concentration of 0.1 μg/mL. After initiation of the reaction, an increase in the optical concentration at 340 nm (OD340) was monitored with a microplate spectrophotometer (Varsamax, Molecular Devices Japan K.K.) every 10 seconds over an incubation period of 10 minutes. An inclination of the OD340 increase was defined as raw data. The GK activating rate was indicated as a numerical value obtained from the expression: (Inclination of OD340 increase by addition of the test compound)/(inclination of OD340 increase without addition of the test compound). The results of the GK activating rate obtained at a test compound concentration of 1 μmol/L under the condition of a glucose concentration of 2.5 mmol/L are shown in the following table.", "units": {"activity at 1 µM": "%"}, "values": [{"smiles": "CCOC(=O)CCCc1ccc2c(c1)C1(CCN(C(=O)NC)C1)CN2C(=O)Nc1ncc(Cl)s1", "note": "(stereo not shown) [Example 419, ethyl 4-(1-((5-chlorothiazol-2-yl)carbamoyl)-1′-(methylcarbamoyl)spiro[indoline-3,3′-pyrrolidin]-5-yl)butanoate]", "activity at 1 µM": 535}, {"smiles": "COC(=O)N1CC[C@@]2(C1)CN(C(=O)Nc1nc3ccc(OC)nc3s1)c1ccc(S(=O)(=O)N(CCCC(=O)O)Cc3ccccc3)cc12", "note": "[Example 342, (S)-4-(N-benzyl-1′-(methoxycarbonyl)-1-((5-methoxythiazolo[5,4-b]pyridin-2-yl)carbamoyl)spiro[indoline-3,3′-pyrrolidin]-5-ylsulfonamido)butyric acid]", "activity at 1 µM": 420}, {"smiles": "COC(=O)N1CCC2(C1)CN(C(=O)Nc1ncc(SCC(=O)N(C)C)s1)c1ccc(Cl)cc12", "note": "(stereo not shown) [Example 131, methyl 5-chloro-1-((5-((2-(dimethylamino)-2-oxoethyl)thio)thiazol-2-yl)carbamoyl)spiro[indoline-3,3′-pyrrolidine]-1′-carboxylate]", "activity at 1 µM": 411}, {"smiles": "COC(=O)N1CCC2(C1)CN(C(=O)Nc1ncc(Cl)s1)c1ccc(Br)cc12", "note": "(stereo not shown) [Example 13, Methyl 5-bromo-1-((5-chlorothiazol-2-yl)carbamoyl)spiro[indoline-3,3′-pyrrolidine]-1′-carboxylate]", "activity at 1 µM": 678}, {"smiles": "COC(=O)N1CCC2(C1)CN(C(=O)Nc1ncc(SCCCC(=O)NO)s1)c1ccc(Cl)cc12", "note": "(stereo not shown) [Example 169, methyl 5-chloro-1-((5-((4-(hydroxyamino)-4-oxobutyl)thio)thiazol-2-yl)carbamoyl)spiro[indoline-3,3′-pyrrolidine]-1′-carboxylate]", "activity at 1 µM": 532}, {"smiles": "COC(=O)N1CCC2(C1)CN(C(=O)Nc1ncc(SCCCNC(C)=O)s1)c1ccc(Cl)cc12", "note": "(stereo not shown) [Example 177, methyl 1-((5-((3-acetamidopropyl)thio)thiazol-2-yl)carbamoyl)-5-chlorospiro[indoline-3,3′-pyrrolidine]-1′-carboxylate]", "activity at 1 µM": 530}, {"smiles": "COc1ccc2nc(NC(=O)N3CC4(CCN(C(C)=O)C4)c4cc(S(=O)(=O)NCc5ccccc5OC)ccc43)sc2n1", "note": "(stereo not shown) [Example 263, 1′-Acetyl-5-(N-(2-methoxybenzyl)sulfamoyl)-N-(5-methoxythiazolo[5,4-b]pyridin-2-yl)spiro[indoline-3,3′-pyrrolidine]-1-carboxamide]", "activity at 1 µM": 597}, {"smiles": "COC(=O)N1CCC2(C1)CN(C(=O)Nc1ncc(Oc3cccc(C(N)=O)c3)s1)c1ccc(Cl)cc12", "note": "(stereo not shown) [Example 186, methyl 1-((5-(3-carbamoylphenoxy)thiazol-2-yl)carbamoyl)-5-chlorospiro[indoline-3,3′-pyrrolidine]-1′-carboxylate]", "activity at 1 µM": 583}, {"smiles": "COCCCSc1cnc(NC(=O)N2CC3(CCN(C(=O)OC)C3)c3cc(Cl)ccc32)s1", "note": "(stereo not shown) [Example 162, Methyl 5-chloro-1-((5-((3-methoxypropyl)thio)thiazol-2-yl)carbamoyl)spiro[indoline-3,3′-pyrrolidine]-1′-carboxylate]", "activity at 1 µM": 484}, {"smiles": "CC(=O)N1CCC2(C1)CN(C(=O)Nc1ncc(Cl)s1)c1ccc(Br)cc12", "note": "(stereo not shown) [Example 3, 1′-acetyl-5-bromo-N-(5-chlorothiazol-2-yl)spiro[indoline-3,3′-pyrrolidine]-1-carboxamide]", "activity at 1 µM": 716}, {"smiles": "COC(=O)N1CC[C@@]2(C1)CN(C(=O)Nc1nc3ccc(OC)nc3s1)c1ccc(S(=O)(=O)N(CCO)Cc3ccccc3)cc12", "note": "[Example 345, (S)-methyl 5-(N-benzyl-N-(2-hydroxyethyl)sulfamoyl)-1-((5-methoxythiazolo[5,4-b]pyridin-2-yl)carbamoyl)spiro[indoline-3,3′-pyrrolidine]-1′-carboxylate]", "activity at 1 µM": 785}, {"smiles": "CNC(=O)N1CC[C@@]2(C1)CN(C(=O)Nc1ncc(F)s1)c1ccc(C(F)(F)F)cc12", "note": "[Example 487, (R)—N1-(5-Fluorothiazol-2-yl)-N1′-methyl-5-(trifluoromethyl)spiro[indoline-3,3′-pyrrolidine]-1,1′-dicarboxamide]", "activity at 1 µM": 659}, {"smiles": "COc1ccc2nc(NC(=O)N3CC4(CCN(C(C)=O)C4)c4cc(S(=O)(=O)N(CCO)CC5CC5)ccc43)sc2n1", "note": "(stereo not shown) [Example 302, 1′-acetyl-5-(N-(cyclopropylmethyl)-N-(2-hydroxyethyl)sulfamoyl)-N-(5-methoxythiazolo[5,4-b]pyridin-2-yl)spiro[indoline-3,3′-pyrrolidine]-1-carboxamide]", "activity at 1 µM": 843}, {"smiles": "O=C(NO)N1CCC2(C1)CN(C(=O)Nc1ncc(Cl)s1)c1ccc(Cl)cc12", "note": "(stereo not shown) [Example 481, 5-chloro-N1-(5-chlorothiazol-2-yl)-N1′-hydroxyspiro[indoline-3,3′-pyrrolidine]-1,1′-dicarboxamide]", "activity at 1 µM": 602}, {"smiles": "COCCCN(Cc1ccccc1)S(=O)(=O)c1ccc2c(c1)C1(CCN(C(C)=O)C1)CN2C(=O)Nc1nc2ccc(OC)nc2s1", "note": "(stereo not shown) [Example 289, 1′-Acetyl-5-(N-benzyl-N-(3-methoxypropyl)sulfamoyl)-N-(5-methoxythiazolo[5,4-b]pyridin-2-yl)spiro[indoline-3,3′-pyrrolidine]-1-carboxamide]", "activity at 1 µM": 752}, {"smiles": "CNC(=O)N1CC[C@@]2(C1)CN(C(=O)Nc1ncc(Cl)s1)c1ccc(C#N)cc12", "note": "[Example 376, (R)—N1-(5-Chlorothiazol-2-yl)-5-cyano-N1′-methylspiro[indoline-3,3′-pyrrolidine]-1,1′-dicarboxamide]", "activity at 1 µM": 528}, {"smiles": "COc1cnc(NC(=O)N2CC3(CCN(C(=O)CO)C3)c3cc(C(F)(F)F)ccc32)s1", "note": "(stereo not shown) [Example 441, 1′-(2-Hydroxyacetyl)-N-(5-methoxythiazol-2-yl)-5-(trifluoromethyl)spiro[indoline-3,3′-pyrrolidine]-1-carboxamide]", "activity at 1 µM": 416}, {"smiles": "CC(=O)N1CCC2(C1)CN(C(=O)Nc1ncc(Cl)s1)c1ccc(C(F)(F)F)cc12", "note": "(stereo not shown) [Example 431, 1′-acetyl-N-(5-chlorothiazol-2-yl)-5-(trifluoromethyl)spiro[indoline-3,3′-pyrrolidine]-1-carboxamide]", "activity at 1 µM": 432}, {"smiles": "CCOC(=O)CCCNC(=O)N1CCC2(C1)CN(C(=O)Nc1ncc(Cl)s1)c1ccc(Cl)cc12", "note": "(stereo not shown) [Example 468, Ethyl 4-(5-chloro-1-((5-chlorothiazol-2-yl)carbamoyl)spiro[indoline-3,3′-pyrrolidin]-1′-ylcarboxamido)butanoate]", "activity at 1 µM": 405}, {"smiles": "O=C(NCCO)N1CCC2(C1)CN(C(=O)Nc1ncc(Cl)s1)c1ccc(Cl)cc12", "note": "(stereo not shown) [Example 459, 5-chloro-N1-(5-chlorothiazol-2-yl)-N1′-(2-hydroxyethyl)spiro[indoline-3,3′-pyrrolidine]-1,1′-dicarboxamide]", "activity at 1 µM": 537}, {"smiles": "COCCN(Cc1ccccc1)S(=O)(=O)c1ccc2c(c1)[C@@]1(CCN(C(=O)OC)C1)CN2C(=O)Nc1nc2ccc(OC)nc2s1", "note": "[Example 344, (S)-methyl 5-(N-benzyl-N-(2-methoxyethyl)sulfamoyl)-1-((5-methoxythiazolo[5,4-b]pyridin-2-yl)carbamoyl)spiro[indoline-3,3′-pyrrolidine]-1′-carboxylate]", "activity at 1 µM": 647}, {"smiles": "CNC(=O)N1CC[C@@]2(C1)CN(C(=O)Nc1ncc(OC)s1)c1ccc(C(F)(F)F)cc12", "note": "[Example 489, (R)—N1-(5-Methoxythiazol-2-yl)-N1′-methyl-5-(trifluoromethyl)spiro[indoline-3,3′-pyrrolidine]-1,1′-dicarboxamide]", "activity at 1 µM": 645}]}]}
